Results from patent EP4656642A1, “ESTROGEN RECEPTOR PROTEOLYSIS TARGETING CHIMERA COMPOUND AND USE THEREOF” (GAN & LEE PHARM CO., LTD, priority 2023, dated 2024).

Experiments:
Format in all cases: cell-based
ERα [1] = target: T1, ERα (Homo sapiens, UniProt P03372); test: Degradation of ERα in MCF-7 cells (immunoblotting, 4 h)
T1 sequence (P03372 1-595): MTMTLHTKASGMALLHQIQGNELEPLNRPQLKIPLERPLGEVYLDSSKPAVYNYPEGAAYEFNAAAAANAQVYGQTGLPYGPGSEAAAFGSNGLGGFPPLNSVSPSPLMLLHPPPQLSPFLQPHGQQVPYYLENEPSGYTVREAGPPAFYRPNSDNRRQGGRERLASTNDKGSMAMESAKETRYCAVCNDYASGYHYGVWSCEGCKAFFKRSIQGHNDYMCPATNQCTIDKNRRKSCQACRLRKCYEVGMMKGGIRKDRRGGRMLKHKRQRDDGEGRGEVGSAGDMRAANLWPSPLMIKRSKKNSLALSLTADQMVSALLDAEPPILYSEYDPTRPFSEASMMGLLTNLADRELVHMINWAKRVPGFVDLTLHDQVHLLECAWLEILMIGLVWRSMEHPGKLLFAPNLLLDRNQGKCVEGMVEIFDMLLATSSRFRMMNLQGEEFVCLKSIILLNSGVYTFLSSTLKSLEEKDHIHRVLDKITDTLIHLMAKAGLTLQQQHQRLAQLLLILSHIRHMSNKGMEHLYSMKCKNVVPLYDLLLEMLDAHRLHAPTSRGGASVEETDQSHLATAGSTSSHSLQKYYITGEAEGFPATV
Outline: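 MCF-7 cells treated 4 h at 37°C with compounds at 0.15-1000nM final. ERα in lysates measured by immunoblot, with band grayscale normalized to an internal reference protein. Degradation rate calculated against DMSO-treated control.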

T-47D cells = test: Inhibition of cell proliferation in T-47D cells (CCK-8, 6 days); details: 6 days of treatment, Table 3
Outline: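 T-47D cells at 3,000 cells/well in RPMI 1640 with 10% FBS were exposed to a concentration series of PROTAC compounds for 6 days at 37 °C, 5% CO2. Viability was read by CCK-8, and IC50 values were derived for proliferation inhibition.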

ERα [2] = target: T1, ERα; test: Degradation of ERα in T-47D cells (immunoblotting, 4 h); set-up: host or cells: T-47D
Outline: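 T-47D cells were treated with compound (final 0.15-1000 nM, DMSO) for 4 h at 37°C, 5% CO2. Cells were lysed in RIPA buffer with protease inhibitor, and ERα protein in the cleared lysate was measured by immunoblotting.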

MCF-7 cells = test: Inhibition of cell proliferation of MCF-7 cells (CCK-8, 9 days); details: treated for 9 days, CCK-8 kit (Table 6)
Outline: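 MCF-7 cells seeded at 800 cells/well in DMEM with 10% FBS, exposed to a range of compound concentrations for 9 days at 37°C, 5% CO2. Viability read by CCK-8; IC50 derived for proliferation inhibition.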

| SMILES | Degradation rate (%) of ERα in MCF-7 cells (ERα [1]; 1nM compound) [%] | Degradation rate (%) of ERα in MCF-7 cells (ERα [1]; 10nM compound) [%] | IC50 (T-47D cells) [nM] | Degradation rate (%) of ERα in T-47D cells (ERα [2]; 1nM compound) [%] | Degradation rate (%) of ERα in T-47D cells (ERα [2]; 10nM compound) [%] | IC50 (MCF-7 cells) [nM] |
| --- | --- | --- | --- | --- | --- | --- |
| O=C1CCC(N2Cc3c(ccc4c3OCC43CCN(C4CCN(C(=O)C5CCN(c6ccc([C@@H]7c8ccc(O)cc8CC[C@@H]7c7ccccc7)cc6)CC5)[C@@H](C(=O)N5CCC(F)(F)CC5)C4)CC3)C2=O)C(=O)N1 (stereo partly drawn) [C1] | 18 | 49 | 1.15 | 50 | 72 | 8.05 |
| O=C1CCC(N2Cc3c(ccc4c3OCC43CCN(C4CCN(C(=O)C5CCN(c6ccc([C@@H]7c8ccc(O)cc8CC[C@@H]7c7ccccc7)cc6)CC5)[C@@H](C(=O)N5CCC(F)(F)C5)C4)CC3)C2=O)C(=O)N1 (stereo partly drawn) [C2] | 42 | 63 | 1.68 | 49 | 81 | 31.1 |
| O=C1CCC(N2Cc3c(ccc4c3OCC43CCN(C4CCN(C(=O)C5CCN(c6ccc([C@@H]7c8ccc(O)cc8CC[C@@H]7c7ccccc7)cc6)CC5)[C@@H](C(=O)N5CC(F)(F)C5)C4)CC3)C2=O)C(=O)N1 (stereo partly drawn) [C4] | 38 | 75 | 1.17 | 54 | 85 | 67 |
| O=C1CCC(N2Cc3c(ccc4c3OCC43CCN(C(=O)C4CCC(CN5CCN(c6ccc(C7c8ccc(O)cc8CCC7c7ccccc7)cc6)CC5)CC4)CC3)C2=O)C(=O)N1 (stereo not drawn) [C5] | 43 | 66 | 1.3 | 52 | 77 | 6.7 |
| O=C1CCC(N2Cc3c(ccc4c3OCC43CCN(C(=O)C4CCC(CN5CCC(C#Cc6ccc(C7c8ccc(O)cc8CCC7c7ccccc7)cc6)CC5)CC4)CC3)C2=O)C(=O)N1 (stereo not drawn) [C6] | 27 | 42 | 2.93 | 38 | 49 | 92.5 |
| O=C1CCC(N2Cc3cc4c(cc3C2=O)CCC2(CN(C(=O)[C@H]3CC[C@H](CN5CCN(c6ccc([C@@H]7c8ccc(O)cc8CC[C@@H]7c7ccccc7)cc6)CC5)CC3)C2)O4)C(=O)N1 (stereo partly drawn) [C7] | 38 | 63 | 1.75 | 45 | 74 | 84.7 |
| O=C1CCC(N2Cc3cc4c(cc3C2=O)OC2(CC4)CN(C(=O)[C@H]3CC[C@H](CN4CCN(c5ccc([C@@H]6c7ccc(O)cc7CC[C@@H]6c6ccccc6)cc5)CC4)CC3)C2)C(=O)N1 (stereo partly drawn) [C8] | 29 | 40 | 0.99 | 60 | 78 | 2730 |
| C[C@@H]1Cc2c(ccc3[nH]ncc23)[C@@H](c2c(F)cc(N3CCC4(CCN(CC(=O)N5CCC6(CC5)COc5c6ccc6c5CN(C5CCC(=O)NC5=O)C6=O)CC4)CC3)cc2F)N1CC(F)F (stereo partly drawn) [C10] | 53 | 65 | 0.5 | 65 | 80 | 54.8 |
| C[C@@H]1Cc2c(ccc3[nH]ncc23)[C@@H](c2c(F)cc(N3CCC4(CCN(CC(=O)N5CCC6(CC5)COc5c6ccc6c5CN(C5CCC(=O)NC5=O)C6=O)C4)CC3)cc2F)N1CC(F)F (stereo partly drawn) [C11] | 60 | 69 | 0.66 | 56 | 68 | 5970 |
| C[C@@H]1Cc2c(ccc3[nH]ncc23)[C@@H](c2c(F)cc(N3CCN(C[C@H]4CC[C@H](C(=O)N5CCC6(CC5)COc5c6ccc6c5CN(C5CCC(=O)NC5=O)C6=O)CC4)CC3)cc2F)N1CC(F)F (stereo partly drawn) [C12] | -34 | 22 | 37.4 | 27 | 47 | 180 |
| C[C@@H]1Cc2c(ccc3[nH]ncc23)[C@@H](c2c(F)cc(N3CCC4(CCN(C(=O)CN5CCC6(CC5)COc5c6ccc6c5CN(C5CCC(=O)NC5=O)C6=O)CC4)CC3)cc2F)N1CC(F)F (stereo partly drawn) [C13] | 41 | 62 | 0.61 | 46 | 70 | 3.24 |
| C[C@@H]1Cc2c(ccc3[nH]ncc23)[C@@H](c2c(F)cc(N3CCC4(CCN(C(=O)CN5CCC6(CC5)COc5c6ccc6c5CN(C5CCC(=O)NC5=O)C6=O)C4)CC3)cc2F)N1CC(F)F (stereo partly drawn) [C14] | 41 | 55 | 0.96 | 50 | 66 | 15 |
| CN(C(=O)CN1CCC2(CC1)COc1c2ccc2c1C(=O)N(C1CCC(=O)NC1=O)C2=O)C1CCC2(CC1)CCN(c1ccc([C@@H]3c4ccc(O)cc4CC[C@@H]3c3ccccc3)cc1)CC2 (stereo partly drawn) [C15] | 18 | 45 | 9.07 | 41 | 71 | 406 |
| CN(CC(=O)N1CC2(CCc3cc4c(cc3O2)C(=O)N(C2CCC(=O)NC2=O)C4)C1)C1CCC2(CC1)CN(c1ccc([C@@H]3c4ccc(O)cc4CC[C@@H]3c3ccccc3)cc1)C2 (stereo partly drawn) [C18] | 10 | 29 | 11.1 | 24 | 50 | 11400 |
| CN(CC(=O)N1CCC2(CC1)COc1c2ccc2c1C(=O)N(C1CCC(=O)NC1=O)C2=O)C1CCC2(CC1)CN(c1ccc([C@@H]3c4ccc(O)cc4CC[C@@H]3c3ccccc3)cc1)C2 (stereo partly drawn) [C19] | 15 | 45 | 14.7 | 32 | 65 | 23100 |
| O=C1CCC(N2Cc3c(ccc4c3OCC43CCN(C4CCC5(CC4)CCN(c4ccc(C6=C(c7ccc(Cl)cc7Cl)CCCc7cc(C(=O)O)ccc76)cc4)CC5)CC3)C2=O)C(=O)N1 (stereo not drawn) [F11] | 14 | 43 | 10.4 | 20 | 57 | 103 |
| O=C1CCC(N2Cc3c(ccc4c3OCC43CCN(C4CC5(C4)CC4(CCN(c6ccc([C@@H]7c8ccc(O)cc8CC[C@@H]7c7ccccc7)cc6)CC4)C5)CC3)C2=O)C(=O)N1 (stereo partly drawn) [G6] | 8 | 46 | 4.21 | 33 | 71 | 25400 |
